From patent EP4782450A1, “NOVEL SKELETAL DERIVATIVE EFFECTIVE FOR HER2 MUTATION, AND PHARMACEUTICAL COMPOSITION COMPRISING SAME” (Hanmi Pharm. Co., Ltd., priority 2023, dated 2025)

How the values were obtained:
[1] = tested on: wild-type EGFR overexpressing Ba/F3 cells; experiment: Growth inhibition of Ba/F3 cells engineered to overexpress wild-type EGFR (CellTiter-Glo luminescence); format: cell-based; settings: Mus musculus, BaF3, 72 hours, concentrations 10000 to 8 nM, read-out: Ba/F3 EGFR^WT GI50 class
Procedure: (§1) Experimental Example: Growth inhibition of Ba/F3 HER2 A775insYVMA and wild-type Ba/F3 cells
(§2) In this Experimental Example, the compounds obtained in Examples 1 to 92 were evaluated for their ability to inhibit growth of cells harboring either the HER2 A775insYVMA mutation or wild-type EGFR. For this purpose, Ba/F3 cells (ATCC, USA) were genetically engineered to overexpress either HER2 A775_G776insYVMA or wild-type EGFR, and the growth of these engineered Ba/F3 cells were monitored in the presence of the compounds described in the Examples to evaluate their effects on growth inhibition.
(§3) Specifically, culture flasks of the engineered Ba/F3 cells suspended in RPMI 1640 medium supplemented with 10% fetal bovine serum (FBS) and 1% penicillin/streptomycin (Gibco BRL, USA) were placed in a cell incubator and incubated at 37°C and 5% CO2 level to allow them to reach a stable logarithmic growth phase. The cells were then harvested by centrifugation to remove the old media and placed into a 96-well plate by dividing them into 100 µL aliquots per well at a dilution of 1×10^5 cells/mL in fresh media. Each of the compounds prepared in the preceding Examples were dissolved in 99.5% (cell culture grade) dimethylsulfoxide (DMSO) to prepare a stock solution of 10 mM concentration, which were serially diluted in the culture medium to final concentrations of 1000, 200, 40, 8, 1.6 and 0.32 nM for HER2 A775insYVMA Ba/F3 cells and concentrations of 10000, 5000, 1000, 200, 40 and 8 nM for wild-type EGFR overexpressing Ba/F3 cells.
(§4) To each aliquot of cells in the 96-well plate, a 50 µL test solution comprising one of the compounds was added to result in each well a 150 µL volume of cells with a compound in a final concentration ranging from 10 µM to 0.32 nM. The Ba/F3 cells treated with the test solution were incubated for 72 hours at 37°C and 5% CO2 level and underwent a 30-minute acclimation by placing the 96-well plate carrying the cells in ambient temperature. Thereafter, to each well was added 50 µL CellTiter-Glo® Luminescent Cell Assay Reagent (CTG, Promega, USA). After allowing 10 minutes to stabilize the signal, luminescence intensity was measured using a microplate reader. The half-maximal growth inhibition concentration (GI50) was calculated from the luminescence readout of the test compounds with the difference between the initial and final cell densities for the well untreated with a compound set at 100% growth. Nonlinear regression analysis based on log[inhibitor] vs. normalized response mode of the Graph Prism software was used for calculating GI50 for each compound, which are summarized in Table 6. The calculated GI50 values are classified in Table 6 into four categories: A for GI50 values less than 100 nM, B for GI50 values more than 100 nM but less than 1,000 nM, C for GI50 values more than 1,000 nM but less than 5,000 nM, and D for GI50 values of more than 5,000 nM.

Ba/F3 HER2 A775insYVMA = experiment: Growth inhibition of Ba/F3 cells engineered to overexpress HER2 A775_G776insYVMA (CellTiter-Glo luminescence); format: cell-based; settings: Mus musculus, BaF3, 72 hours, concentrations 1000 to 0.32 nM, read-out: Ba/F3 HER2^YVMA GI50 class
Procedure: as §1, §2, §3, §4

`C=CC(=O)N1CC(/C=C/c2ccc3ncnc(Nc4ccc(Oc5cnc6c(c5)ncn6C)c(C)c4F)c3n2)C1` [Example 47] was tested, and the GI50 [1] was 1000 to 5000 nM and the GI50 (Ba/F3 HER2 A775insYVMA) was less than 100 nM.
In the case of `C=CC(=O)N1CC(/C=C/c2ccc3ncnc(Nc4ccc(Oc5ccc6cn(C)nc6c5)c(C)c4)c3n2)C1` [Example 48, (E)-1-(3-(2-(4-((3-methyl-4-((2-methyl-2H-indazol-6-yl)oxy)phenyl)amino)pyrido[3,2-d]pyrimidin-6-yl)vinyl)azetidin-1-yl)prop-2-en-1-one], the GI50 [1] is reported as greater than 5000 nM and the GI50 (Ba/F3 HER2 A775insYVMA) is reported as 100 to 1000 nM.
`C=CC(=O)N(CC)C/C=C/c1ccc2ncnc(Nc3ccc(Oc4ccc5c(c4)ncn5C)c(C)c3)c2n1` [Example 49, (E)-N-ethyl-N-(3-(4-((3-methyl-4-((1-methyl-1H-benzo[d]imidazol-5-yl)oxy)phenyl)amino)pyrido[3,2-d]pyrimidin-6-yl)allyl)acrylamide] was tested, and the GI50 [1] was greater than 5000 nM and the GI50 (Ba/F3 HER2 A775insYVMA) was less than 100 nM.
`C=CC(=O)N(C)C(C)/C=C/c1ccc2ncnc(Nc3ccc(Oc4ccc5c(c4)ncn5C)c(C)c3)c2n1` (stereo not drawn) [Example 50, (E)-N-methyl-N-(4-(4-((3-methyl-4-((1-methyl-1H-benzo[d]imidazol-5-yl)oxy)phenyl)amino)pyrido[3,2-d]pyrimidin-6-yl)but-3-en-2-yl)acrylamide] showed a GI50 [1] of 1000 to 5000 nM and a GI50 (Ba/F3 HER2 A775insYVMA) of less than 100 nM.
For `C=CC(=O)N(C)[C@@H](C)/C=C/c1ccc2ncnc(Nc3ccc(Oc4ccc5c(c4)ncn5C)c(C)c3)c2n1` [Example 51, (S,E)-N-methyl-N-(4-(4-((3-methyl-4-((1-methyl-1H-benzo[d]imidazol-5-yl)oxy)phenyl)amino)pyrido[3,2-d]pyrimidin-6-yl)but-3-en-2-yl)acrylamide], the GI50 [1] was 1000 to 5000 nM and the GI50 (Ba/F3 HER2 A775insYVMA) was less than 100 nM.
For `C=CC(=O)N(C)[C@H](C)/C=C/c1ccc2ncnc(Nc3ccc(Oc4ccc5c(c4)ncn5C)c(C)c3)c2n1` [Example 52, (R,E)-N-methyl-N-(4-(4-((3-methyl-4-((1-methyl-1H-benzo[d]imidazol-5-yl)oxy)phenyl)amino)pyrido[3,2-d]pyrimidin-6-yl)but-3-en-2-yl)acrylamide], the GI50 [1] was 1000 to 5000 nM and the GI50 (Ba/F3 HER2 A775insYVMA) was less than 100 nM.
Compound `C=CC(=O)N(C/C=C/c1ccc2ncnc(Nc3ccc(Oc4ccc5c(c4)ncn5C)c(C)c3)c2n1)C(C)(C)C` [Example 53, (E)-N-(tert-butyl)-N-(3-(4-((3-methyl-4-((1-methyl-1H-benzo[d]imidazol-5-yl)oxy)phenyl)amino)pyrido[3,2-d]pyrimidin-6-yl)allyl)acrylamide] has a GI50 [1] of 1000 to 5000 nM and a GI50 (Ba/F3 HER2 A775insYVMA) of less than 100 nM.
`C=CC(=O)N(C)C/C=C/c1ccc2ncnc(Nc3cc(C)c(Oc4ccc5c(c4)ncn5C)cc3OC)c2n1` [Example 54, (E)-N-(3-(4-((2-methoxy-5-methyl-4-((1-methyl-1H-benzo[d]imidazol-5-yl)oxy)phenyl)amino)pyrido[3,2-d]pyrimidin-6-yl)allyl)-N-methylacrylamide] showed a GI50 [1] greater than 5000 nM and a GI50 (Ba/F3 HER2 A775insYVMA) of less than 100 nM.
For `C=CC(=O)N(C)C/C=C/c1ccc2ncnc(Nc3ccc(Oc4ccc5c(c4)ncn5C)c(F)c3)c2n1` [Example 55, (E)-N-(3-(4-((3-fluoro-4-((1-methyl-1H-benzo[d]imidazol-5-yl)oxy)phenyl)amino)pyrido[3,2-d]pyrimidin-6-yl)allyl)-N-methylacrylamide], the GI50 [1] was greater than 5000 nM and the GI50 (Ba/F3 HER2 A775insYVMA) was less than 100 nM.
In the case of `C=CC(=O)N(C)C/C=C/c1ccc2ncnc(Nc3ccc(Cc4ccn5ncnc5c4)c(C)c3)c2n1` [Example 56, (E)-N-(3-(4-((4-([1,2,4]triazolo[1,5-a]pyridin-7-ylmethyl)-3-methylphenyl)amino)pyrido[3,2-d]pyrimidin-6-yl)allyl)-N-methylacrylamide], the GI50 [1] is reported as 100 to 1000 nM and the GI50 (Ba/F3 HER2 A775insYVMA) is reported as less than 100 nM.
`C=CC(=O)N(C)C/C=C/c1ccc2ncnc(Nc3ccc(Oc4ccc5ocnc5c4)c(C)c3)c2n1` [Example 57, (E)-N-(3-(4-((4-(benzo[d]oxazol-5-yloxy)-3-methylphenyl)amino)pyrido[3,2-d]pyrimidin-6-yl)allyl)-N-methylacrylamide] gave a GI50 [1] of 100 to 1000 nM and a GI50 (Ba/F3 HER2 A775insYVMA) of less than 100 nM.
With `Cc1cc(Nc2ncnc3ccc(/C=C/CNC(=O)/C=C/[C@H]4CCCN4C)nc23)ccc1Oc1ccc2c(c1)ncn2C` [Example 58, (E)-N-((E)-3-(4-((3-methyl-4-((1-methyl-1H-benzo[d]imidazol-5-yl)oxy)phenyl)amino)pyrido[3,2-d]pyrimidin-6-yl)allyl)-3-((R)-1-methylpyrrolidin-2-yl)acrylamide] the GI50 [1] was 1000 to 5000 nM and the GI50 (Ba/F3 HER2 A775insYVMA) was 100 to 1000 nM.
For `Cc1cc(Nc2ncnc3ccc(/C=C/CNC(=O)/C=C/CN4CCCCC4)nc23)ccc1Oc1ccc2c(c1)ncn2C` [Example 59, (E)-N-((E)-3-(4-((3-methyl-4-((1-methyl-1H-benzo[d]imidazol-5-yl)oxy)phenyl)amino)pyrido[3,2-d]pyrimidin-6-yl)allyl)-4-(piperidin-1-yl)but-2-enamide], the GI50 [1] was 1000 to 5000 nM and the GI50 (Ba/F3 HER2 A775insYVMA) was less than 100 nM.
For `Cc1cc(Nc2ncnc3ccc(/C=C/CNC(=O)/C=C/CN4CCOCC4)nc23)ccc1Oc1ccc2c(c1)ncn2C` [Example 60, (E)-N-((E)-3-(4-((3-methyl-4-((1-methyl-1H-benzo[d]imidazol-5-yl)oxy)phenyl)amino)pyrido[3,2-d]pyrimidin-6-yl)allyl)-4-morpholinobut-2-enamide], the GI50 [1] was greater than 5000 nM and the GI50 (Ba/F3 HER2 A775insYVMA) was less than 100 nM.
In the case of `Cc1cc(Nc2ncnc3ccc(/C=C/CN(C)C(=O)/C=C/CN4CCCCC4)nc23)ccc1Oc1ccc2c(c1)ncn2C` [Example 61, (E)-N-methyl-N-((E)-3-(4-((3-methyl-4-((1-methyl-1H-benzo[d]imidazol-5-yl)oxy)phenyl)amino)pyrido[3,2-d]pyrimidin-6-yl)allyl)-4-(piperidin-1-yl)but-2-enamide], the GI50 [1] is reported as 1000 to 5000 nM and the GI50 (Ba/F3 HER2 A775insYVMA) is reported as less than 100 nM.
`Cc1cc(Nc2ncnc3ccc(/C=C/CN(C)C(=O)/C=C/CN4CCOCC4)nc23)ccc1Oc1ccc2c(c1)ncn2C` [Example 62, (E)-N-methyl-N-((E)-3-(4-((3-methyl-4-((1-methyl-1H-benzo[d]imidazol-5-yl)oxy)phenyl)amino)pyrido[3,2-d]pyrimidin-6-yl)allyl)-4-morpholinobut-2-enamide] showed a GI50 [1] greater than 5000 nM and a GI50 (Ba/F3 HER2 A775insYVMA) of 100 to 1000 nM.
`C=CC(=O)N(C)c1cccc(/C=C/c2ccc3ncnc(Nc4ccc(Oc5ccc6c(c5)ncn6C)c(C)c4)c3n2)c1` [Example 63, (E)-N-methyl-N-(3-(2-(4-((3-methyl-4-((1-methyl-1H-benzo[d]imidazol-5-yl)oxy)phenyl)amino)pyrido[3,2-d]pyrimidin-6-yl)vinyl)phenyl)acrylamide] was tested, and the GI50 [1] was 1000 to 5000 nM and the GI50 (Ba/F3 HER2 A775insYVMA) was 100 to 1000 nM.
In the case of `C=CC(=O)Nc1cccc(/C=C/c2ccc3ncnc(Nc4ccc(Oc5ccc6c(c5)ncn6C)c(C)c4)c3n2)c1` [Example 64, (E)-N-(3-(2-(4-((3-methyl-4-((1-methyl-1H-benzo[d]imidazol-5-yl)oxy)phenyl)amino)pyrido[3,2-d]pyrimidin-6-yl)vinyl)phenyl)acrylamide], the GI50 [1] is reported as greater than 5000 nM and the GI50 (Ba/F3 HER2 A775insYVMA) is reported as 100 to 1000 nM.
Compound `C=CC(=O)N(C)CC#Cc1ccc2ncnc(Nc3ccc(Oc4ccn5ncnc5c4)c(C)c3)c2c1` [Example 65, N-(3-(4-((4-([1,2,4]triazolo[1,5-a]pyridin-7-yloxy)-3-methylphenyl)amino)quinazolin-6-yl)prop-2-yn-1-yl)-N-methylacrylamide] has a GI50 [1] of 100 to 1000 nM and a GI50 (Ba/F3 HER2 A775insYVMA) of less than 100 nM.
Work on `C=CC(=O)N(C)CC#Cc1cnc2ncnc(Nc3ccc(Oc4ccn5ncnc5c4)c(C)c3)c2c1` [Example 66, N-(3-(4-((4-([1,2,4]triazolo[1,5-a]pyridin-7-yloxy)-3-methylphenyl)amino)pyrido[2,3-d]pyrimidin-6-yl)prop-2-yn-1-yl)-N-methylacrylamide] yielded a GI50 [1] of 1000 to 5000 nM and a GI50 (Ba/F3 HER2 A775insYVMA) of 1000 to 5000 nM.
`C=CC(=O)N(C)CC#Cc1cc2c(Nc3ccc(Oc4ccn5ncnc5c4)c(C)c3)ncnc2cn1` [Example 67, N-(3-(4-((4-([1,2,4]triazolo[1,5-a]pyridin-7-yloxy)-3-methylphenyl)amino)pyrido[3,4-d]pyrimidin-6-yl)prop-2-yn-1-yl)-N-methylacrylamide] showed a GI50 [1] of 100 to 1000 nM and a GI50 (Ba/F3 HER2 A775insYVMA) of 100 to 1000 nM.
